{"source": "ChEMBL document CHEMBL1201862", "about": "“PubChem BioAssay data set” (2004)", "key": {"[1]": {"experiment": "A549 cell cytotoxicity, dose response, cytotoxicity control, plate reader, cherry-pick, antagonist series (AID 743412)", "assay_type": "functional, cell-based"}, "[2]": {"experiment": "LGR2 antagonists, dose response, cell-based, HEK293, CRE-luciferase reporter, cherry pick, set 2 (AID 743343);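 note: transfected cells were stimulated with diluted bursicon conditioned medium after compound addition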", "assay_type": "functional"}, "[3]": {"experiment": "Vero E6 cell cytotoxicity, dose response, cytotoxicity control for non-replicating M. tuberculosis project, secondary assay (AID 492998)", "assay_type": "functional, VeroE6", "settings": "Vero C1008"}, "Vero": {"test_system": "Vero", "experiment": "cells", "assay_type": "functional", "settings": "Chlorocebus sabaeus"}, "[4]": {"experiment": "HEK293 cell cytotoxicity, dose response, cytotoxicity control, plate reader, cherry-picked samples (AID 743446)", "assay_type": "functional, cell-based"}, "[5]": {"experiment": "THP-1 cell cytotoxicity, dose response, cytotoxicity control for non-replicating M. tuberculosis project (AID 489025)", "assay_type": "functional"}, "cells": {"experiment": "cells", "assay_type": "functional"}, "[6]": {"experiment": "MC4R antagonists, dose response, counter-screen for LGR2 antagonist project, cell-based, plate reader, cherry pick (AID 743444);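 note: transfected HEK 293 cells stimulated with alpha-MSH peptide; potency of inhibitors of the alpha-MSH evoked signal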", "assay_type": "functional"}, "[7]": {"experiment": "HepG2 cell cytotoxicity, dose response, cytotoxicity control, plate reader, cherry-pick, antagonist series (AID 743416)", "assay_type": "functional, cell-based"}, "INS1": {"test_system": "INS1", "experiment": "beta cell apoptosis inhibitors, cytokine rescue, dose response, luminescence, retest (AID 449756);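 note: cell death triggered by IL-1 beta plus TNF-alpha plus IFN-gamma mixture; protective hits raise ATP signal compared with cytokine alone wells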", "assay_type": "functional, cell-based", "settings": "Rattus norvegicus"}, "[8]": {"molecular_target": "T1, Calpain-2 catalytic subunit (Sus scrofa, UniProt P43367)", "T1 sequence (P43367 whole entry)": "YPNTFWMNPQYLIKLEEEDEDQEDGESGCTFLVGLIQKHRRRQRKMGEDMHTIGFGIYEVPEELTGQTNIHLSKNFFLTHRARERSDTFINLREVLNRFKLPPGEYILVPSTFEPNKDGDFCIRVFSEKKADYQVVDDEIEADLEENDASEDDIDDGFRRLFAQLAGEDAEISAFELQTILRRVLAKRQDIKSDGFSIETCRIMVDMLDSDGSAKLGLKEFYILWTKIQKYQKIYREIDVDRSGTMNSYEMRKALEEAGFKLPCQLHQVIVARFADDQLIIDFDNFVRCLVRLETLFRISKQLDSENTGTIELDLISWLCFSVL", "experiment": "pig calpain II inhibitor potency, dose response, biochemical, fluorogenic peptide substrate (AID 1420)", "assay_type": "functional"}, "[9]": {"experiment": "cytotoxicity in HEK-293T cells, dose response, cytotoxicity control for TCR NF-kB inhibitor project, luminescence, T-cell screen hits (AID 489026);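 note: cells exposed to compound about 14 hours before the viability readout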", "assay_type": "functional, cell-based"}, "[10]": {"experiment": "Luminescence Cell-Based Dose Confirmation HTS to Identify Activators of 5'UTR Stem-Loop Driven Alpha-Synuclein mRNA Translation in H4 Neuroglioblastoma Cells. [Related pubchem assays: 1829 (Project Summary), 1814 (Primary HTS)]", "assay_type": "functional"}, "H4": {"test_system": "H4", "experiment": "Luminescence Cell-Based Dose Response HTS to Identify Activators of 5'UTR Stem-Loop Driven Prion Protein mRNA Translation in H4 Neuroglioblastoma Cells. [Related pubchem assays: 1829 (Project Summary), 1814 (Primary HTS)]", "assay_type": "functional", "settings": "Homo sapiens"}, "[11]": {"molecular_target": "T2, Heat shock factor protein 1 (Mus musculus, UniProt P38532)", "T2 sequence (P38532 whole entry)": "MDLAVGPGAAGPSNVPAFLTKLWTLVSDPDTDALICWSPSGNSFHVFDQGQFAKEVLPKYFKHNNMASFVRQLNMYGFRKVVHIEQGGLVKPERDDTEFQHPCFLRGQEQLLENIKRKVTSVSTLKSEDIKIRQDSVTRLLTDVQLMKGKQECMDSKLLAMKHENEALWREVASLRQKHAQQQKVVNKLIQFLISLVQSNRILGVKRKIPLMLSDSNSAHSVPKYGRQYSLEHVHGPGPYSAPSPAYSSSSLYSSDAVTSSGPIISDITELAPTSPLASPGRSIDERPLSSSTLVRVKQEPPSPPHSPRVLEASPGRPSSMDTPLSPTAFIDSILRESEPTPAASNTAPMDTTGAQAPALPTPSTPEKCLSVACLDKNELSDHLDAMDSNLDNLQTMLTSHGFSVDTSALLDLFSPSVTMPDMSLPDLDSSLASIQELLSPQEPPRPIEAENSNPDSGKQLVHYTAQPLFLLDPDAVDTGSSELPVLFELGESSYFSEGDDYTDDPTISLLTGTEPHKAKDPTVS", "experiment": "inhibition of MG132-induced HSE-luciferase signal, confirmation, cell-based, NIH3T3, luminescence, dose retest (AID 2382);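 note: NIH3T3 fibroblasts with HSF1-driven luciferase reporter stressed by proteasome inhibitor MG132; luminescence from HSF1-driven luciferase expression after 8 hours of MG132 stress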", "assay_type": "functional"}, "[12]": {"experiment": "Luminescence Cell-Based Dose Retest to Confirm Inhibitors of Cancer Stem Cells. [Related pubchem assays (depositor defined):AID2717, AID2721]", "assay_type": "functional", "settings": "Homo sapiens"}, "[13]": {"experiment": "Luminescence Cell-Based Dose Response HTS to Identify Activators of Luciferase Translation or Activity in H4 […] Cells. [Related pubchem assays: 1829 (Project Summary), 1814 (Primary HTS)]", "assay_type": "functional"}, "Cytochrome P450 2C9": {"molecular_target": "Cytochrome P450 2C9 (Homo sapiens, UniProt P11712)", "sequence (P11712 whole entry)": "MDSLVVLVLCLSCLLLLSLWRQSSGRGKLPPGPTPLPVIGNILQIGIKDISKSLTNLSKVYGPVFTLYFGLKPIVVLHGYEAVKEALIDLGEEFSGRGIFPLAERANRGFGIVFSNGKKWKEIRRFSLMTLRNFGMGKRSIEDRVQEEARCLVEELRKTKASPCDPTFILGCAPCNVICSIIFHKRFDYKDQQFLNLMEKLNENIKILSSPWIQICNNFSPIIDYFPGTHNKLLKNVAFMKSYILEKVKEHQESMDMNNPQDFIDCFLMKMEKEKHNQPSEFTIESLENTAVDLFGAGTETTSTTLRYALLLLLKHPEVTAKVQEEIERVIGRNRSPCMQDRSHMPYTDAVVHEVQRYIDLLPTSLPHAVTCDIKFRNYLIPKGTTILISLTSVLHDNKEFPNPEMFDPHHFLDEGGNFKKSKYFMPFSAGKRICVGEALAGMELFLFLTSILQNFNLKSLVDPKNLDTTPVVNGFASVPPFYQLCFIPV"}, "[14]": {"molecular_target": "T3, Polyadenylate-binding protein 1 (Homo sapiens, UniProt P11940)", "T3 sequence (P11940 whole entry)": "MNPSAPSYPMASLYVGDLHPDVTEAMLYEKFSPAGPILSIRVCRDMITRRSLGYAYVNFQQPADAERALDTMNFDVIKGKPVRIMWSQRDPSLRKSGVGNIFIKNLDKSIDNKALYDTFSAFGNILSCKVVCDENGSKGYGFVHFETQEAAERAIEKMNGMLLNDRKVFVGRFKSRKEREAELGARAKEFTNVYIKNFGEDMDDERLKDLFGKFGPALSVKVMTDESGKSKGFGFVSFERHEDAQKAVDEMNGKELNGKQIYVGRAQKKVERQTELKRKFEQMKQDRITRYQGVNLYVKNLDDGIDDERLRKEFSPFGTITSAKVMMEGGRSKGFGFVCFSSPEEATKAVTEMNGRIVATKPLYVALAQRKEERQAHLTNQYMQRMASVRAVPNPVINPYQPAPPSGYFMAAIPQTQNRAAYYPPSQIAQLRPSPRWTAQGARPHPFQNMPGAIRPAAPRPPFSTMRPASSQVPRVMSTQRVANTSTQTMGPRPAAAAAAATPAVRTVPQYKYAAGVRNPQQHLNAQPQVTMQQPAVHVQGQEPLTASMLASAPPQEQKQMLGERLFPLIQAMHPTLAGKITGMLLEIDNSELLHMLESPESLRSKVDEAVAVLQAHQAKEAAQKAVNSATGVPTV", "experiment": "PABP1 MLLE–PAM2 binding inhibitor potency, dose response, biochemical, fluorescence polarization, FITC-PAM2 peptide (AID 602259)", "assay_type": "functional", "settings": "read-out: IC50_Mean"}, "Protein skinhead-1": {"molecular_target": "T4, Protein skinhead-1 (Caenorhabditis elegans, UniProt P34707)", "T4 sequence (P34707 whole entry)": "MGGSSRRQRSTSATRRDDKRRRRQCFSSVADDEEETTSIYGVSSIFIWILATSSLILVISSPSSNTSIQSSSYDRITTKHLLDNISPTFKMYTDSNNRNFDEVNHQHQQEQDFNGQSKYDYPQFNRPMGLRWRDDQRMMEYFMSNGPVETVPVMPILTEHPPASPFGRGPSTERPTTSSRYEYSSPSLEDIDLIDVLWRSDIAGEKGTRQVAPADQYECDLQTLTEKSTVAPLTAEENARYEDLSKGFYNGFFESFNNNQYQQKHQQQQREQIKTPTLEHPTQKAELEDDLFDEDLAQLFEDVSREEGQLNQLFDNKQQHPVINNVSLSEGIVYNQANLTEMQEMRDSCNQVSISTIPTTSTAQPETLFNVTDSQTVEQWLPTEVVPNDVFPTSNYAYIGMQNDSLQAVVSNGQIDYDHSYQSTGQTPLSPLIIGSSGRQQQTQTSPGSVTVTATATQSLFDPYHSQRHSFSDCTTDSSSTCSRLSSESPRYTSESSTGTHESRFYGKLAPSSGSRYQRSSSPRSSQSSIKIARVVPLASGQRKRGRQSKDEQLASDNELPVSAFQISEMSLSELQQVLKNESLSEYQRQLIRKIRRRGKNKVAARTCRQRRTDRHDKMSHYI", "assay_type": "functional"}, "[15]": {"molecular_target": "T3, Polyadenylate-binding protein 1", "experiment": "PABP1 MLLE–PAM2 interaction inhibitors, dose response, miRNA deadenylation inhibitor project, biochemical, fluorescence polarization, Cy5-PAM2 peptide, secondary (AID 602260)", "assay_type": "functional", "settings": "read-out: IC50_Mean"}, "Large T antigen": {"molecular_target": "Large T antigen (Simian virus 40, UniProt P03070)", "sequence (P03070 whole entry)": "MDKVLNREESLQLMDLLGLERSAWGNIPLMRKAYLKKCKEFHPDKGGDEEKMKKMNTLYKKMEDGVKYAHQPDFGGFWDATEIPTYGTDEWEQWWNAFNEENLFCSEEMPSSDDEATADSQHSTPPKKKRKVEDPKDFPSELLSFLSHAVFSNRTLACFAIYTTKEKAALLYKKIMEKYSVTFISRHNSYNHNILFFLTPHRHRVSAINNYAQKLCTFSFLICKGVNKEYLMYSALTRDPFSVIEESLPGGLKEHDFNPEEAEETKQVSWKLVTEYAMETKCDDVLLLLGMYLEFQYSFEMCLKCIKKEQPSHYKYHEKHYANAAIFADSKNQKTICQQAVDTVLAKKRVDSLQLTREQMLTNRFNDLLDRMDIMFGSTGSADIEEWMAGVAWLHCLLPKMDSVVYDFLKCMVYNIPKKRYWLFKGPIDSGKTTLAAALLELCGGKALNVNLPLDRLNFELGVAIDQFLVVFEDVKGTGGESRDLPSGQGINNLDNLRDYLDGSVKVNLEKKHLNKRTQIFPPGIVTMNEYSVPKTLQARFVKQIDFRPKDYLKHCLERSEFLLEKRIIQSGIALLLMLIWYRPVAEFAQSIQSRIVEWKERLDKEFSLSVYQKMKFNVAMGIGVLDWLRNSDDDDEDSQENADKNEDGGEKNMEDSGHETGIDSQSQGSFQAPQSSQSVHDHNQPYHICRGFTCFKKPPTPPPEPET", "assay_type": "functional, Betapolyomavirus macacae"}, "[16]": {"molecular_target": "T5, Short transient receptor potential channel 4 (Mus musculus, UniProt Q9QUQ5)", "T5 sequence (Q9QUQ5 whole entry)": "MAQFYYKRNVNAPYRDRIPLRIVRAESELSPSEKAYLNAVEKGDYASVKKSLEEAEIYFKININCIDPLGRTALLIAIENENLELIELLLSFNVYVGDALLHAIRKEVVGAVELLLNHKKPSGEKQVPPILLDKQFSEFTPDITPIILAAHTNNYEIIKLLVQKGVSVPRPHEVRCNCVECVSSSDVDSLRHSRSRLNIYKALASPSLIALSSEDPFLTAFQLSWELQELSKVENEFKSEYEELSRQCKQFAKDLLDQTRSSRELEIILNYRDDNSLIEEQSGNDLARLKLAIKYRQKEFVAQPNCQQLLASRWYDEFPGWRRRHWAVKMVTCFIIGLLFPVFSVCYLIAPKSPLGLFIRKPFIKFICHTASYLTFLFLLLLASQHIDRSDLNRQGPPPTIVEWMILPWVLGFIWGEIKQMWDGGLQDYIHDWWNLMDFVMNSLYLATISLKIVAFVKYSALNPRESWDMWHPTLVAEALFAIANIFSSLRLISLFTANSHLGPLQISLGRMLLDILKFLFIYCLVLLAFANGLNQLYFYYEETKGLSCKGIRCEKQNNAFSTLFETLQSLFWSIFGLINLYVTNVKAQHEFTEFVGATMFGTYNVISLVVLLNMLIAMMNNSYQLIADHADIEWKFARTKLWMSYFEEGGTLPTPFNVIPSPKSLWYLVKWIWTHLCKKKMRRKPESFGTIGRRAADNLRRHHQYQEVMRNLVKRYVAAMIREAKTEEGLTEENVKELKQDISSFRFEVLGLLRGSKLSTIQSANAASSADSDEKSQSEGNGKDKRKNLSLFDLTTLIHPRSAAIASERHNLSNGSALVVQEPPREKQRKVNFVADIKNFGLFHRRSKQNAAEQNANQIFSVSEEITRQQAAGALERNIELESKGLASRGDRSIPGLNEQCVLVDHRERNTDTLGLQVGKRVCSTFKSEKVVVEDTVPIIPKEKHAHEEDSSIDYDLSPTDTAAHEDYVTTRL", "experiment": "mouse TRPC4 channel inhibitors, dose response, cell-based, HEK293 TRPC4/mu-opioid, Fluo-4 calcium (AID 434942)", "assay_type": "functional"}, "[17]": {"molecular_target": "Luciferin 4-monooxygenase (Photinus pyralis, UniProt P08659)", "sequence (P08659 whole entry)": "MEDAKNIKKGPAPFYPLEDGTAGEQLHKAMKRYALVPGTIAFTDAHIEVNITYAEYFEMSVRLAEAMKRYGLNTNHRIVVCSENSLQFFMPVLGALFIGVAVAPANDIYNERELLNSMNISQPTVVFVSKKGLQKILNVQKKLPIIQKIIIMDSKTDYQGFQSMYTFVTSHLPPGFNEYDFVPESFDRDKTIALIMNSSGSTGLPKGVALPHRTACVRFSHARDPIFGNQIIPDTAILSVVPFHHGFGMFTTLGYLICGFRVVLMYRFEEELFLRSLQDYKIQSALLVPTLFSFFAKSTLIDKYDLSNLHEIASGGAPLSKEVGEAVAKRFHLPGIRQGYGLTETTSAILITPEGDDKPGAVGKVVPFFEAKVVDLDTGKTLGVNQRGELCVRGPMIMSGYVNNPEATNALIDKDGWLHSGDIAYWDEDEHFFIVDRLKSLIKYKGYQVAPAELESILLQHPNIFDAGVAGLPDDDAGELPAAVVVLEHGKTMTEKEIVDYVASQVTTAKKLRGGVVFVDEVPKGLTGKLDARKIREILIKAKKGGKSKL", "experiment": "firefly luciferase enzyme inhibitors, dose response, biochemical, luminescence (AID 1891)"}, "[18]": {"experiment": "Luminescence Cell-Based Dose Confirmation HTS to Identify Inhibitors of Platelet Dense Granule Release. [Related pubchem assays: 1663 (Primary HTS), 1678 (Summary of Project)]", "assay_type": "functional"}, "[19]": {"molecular_target": "Heat shock protein HSP 90-alpha (Homo sapiens, UniProt P07900)", "assay_type": "functional, organism-based"}}, "note": "Activity calls are given as the source filed them.", "data": [{"smiles": "Cc1ccc2nc(NC(=O)c3ccccn3)sc2c1", "values": [{"measurement": "AC50", "setting": "[1]", "value": "4.99 µM (active)"}, {"measurement": "AC50", "setting": "[2]", "value": "0.737 µM (active)"}, {"measurement": "CC50", "setting": "[3]", "value": "7.23 µM (active)"}, {"measurement": "CC50", "setting": "Vero", "value": "11.3 µM (active)"}, {"measurement": "AC50", "setting": "[4]", "value": "14 µM (active)"}, {"measurement": "CC50", "setting": "[5]", "value": "10.7 µM (active)"}, {"measurement": "IC50", "setting": "cells", "value": "0.63 µM (active)"}, {"measurement": "AC50", "setting": "[6]", "value": "0.582 µM (active)"}, {"measurement": "AC50", "setting": "[7]", "value": "9.65 µM (active)"}, {"measurement": "AC50", "setting": "INS1", "value": "2.19 µM (active)"}]}, {"smiles": "CCc1ccc(CNCc2cccnc2)cc1", "values": [{"measurement": "IC50", "setting": "[8]", "value": "0.454 µM (not active)"}]}, {"smiles": "CN(Cc1ccccc1)C(=O)c1ccc([N+](=O)[O-])o1", "values": [{"measurement": "CC50", "setting": "[3]", "value": "19.4 µM (active)"}, {"measurement": "CC50", "setting": "[5]", "value": "> 40 µM (active)"}, {"measurement": "IC50", "setting": "cells", "value": "0.36 µM (active)"}]}, {"smiles": "Cc1nc(NCc2ccco2)c2c(C)c(C)sc2n1", "values": [{"measurement": "IC50", "setting": "[9]", "value": "> 80 µM (inactive)"}, {"measurement": "EC50", "setting": "[10]", "value": "> 120 µM (not active)"}, {"measurement": "EC50", "setting": "H4", "value": "> 120 µM (not active)"}, {"measurement": "EC50", "setting": "[11]", "value": "1.22 µM (active)"}, {"measurement": "AC50", "setting": "[12]", "value": "3.97 µM (active)"}, {"measurement": "EC50", "setting": "[13]", "value": "8.42 µM (active)"}]}, {"smiles": "Cc1cc(NC(=O)c2ccccc2Cl)c(C(C)C)cc1O", "values": [{"measurement": "AC50", "setting": "Cytochrome P450 2C9", "value": "inconclusive"}]}, {"smiles": "CCOC(=O)C(CSCC(=O)c1ccc(Cl)cc1Cl)NC(=O)OC(C)(C)C", "note": "(stereo not drawn)", "values": [{"measurement": "IC50", "setting": "[14]", "value": "> 66 µM (inactive)"}, {"measurement": "IC50", "setting": "Protein skinhead-1", "value": "> 100 µM (inactive)"}, {"measurement": "IC50", "setting": "[15]", "value": "> 66 µM (inactive)"}]}, {"smiles": "c1ccc(-c2ccc3c(c2)NCCN3)cc1", "values": [{"measurement": "EC50", "setting": "[10]", "value": "16.3 µM (active)"}, {"measurement": "IC50", "setting": "Large T antigen", "value": "7.54 µM (active)"}, {"measurement": "EC50", "setting": "H4", "value": "50.5 µM (active)"}, {"measurement": "EC50", "setting": "[13]", "value": "25 µM (active)"}]}, {"smiles": "Cc1ccccc1C(=O)NC1CC2CCC(C1)N2Cc1ccccc1", "note": "(stereo not drawn)", "values": [{"measurement": "EC50", "setting": "[16]", "value": "0.188 µM (active)"}]}, {"smiles": "Cc1cccc(N2CCN(C(=O)c3c(-c4ccccc4Cl)noc3C)CC2)c1C", "values": [{"measurement": "IC50", "setting": "[9]", "value": "> 80 µM (inactive)"}]}, {"smiles": "Cc1cc(C)c2c(N=NN3CCOCC3)[nH]nc2n1", "values": [{"measurement": "EC50", "setting": "[17]", "value": "> 112 µM (not active)"}, {"measurement": "EC50", "setting": "[18]", "value": "> 112 µM (not active)"}, {"measurement": "AC50", "setting": "[19]", "value": "4.4 µM (active)"}]}]}
